Data taken from patent publication US5324725A, “7-fused 2-(piperazinoalkyl) indole derivatives, intermediates and compositions thereof” (Kali-Chemie Pharma GmbH, priority 1991, dated 1994).

system: Passive cutaneous anaphylaxis (P.C.A.); test: Inhibition of passive cutaneous anaphylaxis (P.C.A.); format: in vivo, rat (Sprague-Dawley); settings: Rattus norvegicus, 1 h; rats, 2 × 10^-5 mol/kg p.o., one hour before ovalbumin challenge
Method: 1. Determination of the inhibition of passive cutaneous anaphylaxis (P.C.A.) and of the anaphylactoid cutaneous reaction induced by histamine.
The P.C.A. reaction was carried out according to the methods described by Goose et al. (J.N. Immunology 16 (1969), 749) and by Martin et al (Arch. Pharmacol. 316 (1981), 186}.
The IgE-rich ovalbumin antiserum used in the test was obtained from immunized Brown-Norway rats. For immunization, the rats were given an i.p. injection of a mixture of 100 μg of ovalbumin with a Bordetella pertussis suspension (Vaxicoq®, Manufacturer: Institut Merieux, containing 5×10^9 organisms and 1.25 mg of Al(OH)3). After 20 days, the animals received a further i.p. injection of a solution of 10 μg of ovaIbumin in 0.5 ml of physiological saline solution for reimmunisation. After a further four days, the animals were bled, and the blood was centrifuged The antiserum obtained in this way was stored at -20° C. until use.
The determination of the inhibition of passive cutaneous anaphylaxis and the anaphylactoid cutaneous reaction induced by histamine was carried out as follows:
Sprague-Dawley rats having a body weight of 150-180 g were injected intradermally in one flank with 50 μl of a 1:75 dilution of the IgE-rich ovalbumin antiserum in physiological sodium chloride solution for passive sensitization to ovalbumin.
24 hours after sensitization a solution of 8.25 mg/kg of ovalbumin and 26.4 mg/kg of a blue dye (Evans' Blue) was administered i.v. to the rats according to Martin et al. to induce passive cutaneous anaphylaxis. The ovalbumin challenge caused a local anaphylactic reaction at the site at which the antiserum had been injected.
On the test days, the test substances were dissolved in distilled water which contained 1% by volume of dimethylformamide and 1% by volume of Tween®20 (polyoxyethylene(20) sorbitan monolaurate). One hour before the challenging ovalbumin administration, each animal received 2×10^-5 mol/kg of test substance administered orally in 0.5 ml of solution. A control group received only the solvent for comparison.
The oedematous anaphylactic (P.C.A.) and anaphylactoid (histamine-induced) reactions caused by the challenging i.v. ovalbumin injection, which are manifested by oedema formation, swelling and exudation of blue dye, were evaluated 30 minutes after challenge by the i.v. ovalbumin injection. This was done by visual determination of the extent to which the blue dye emerges at the sites of oedema formation. The percentage inhibition of anaphylactic and anaphylactoid reactions caused by the test substances was determined in comparison with the reactions of the control animals not treated with test substance with the aid of comparison scales.
The results obtained by the above test methods using compounds of the formula I are shown in the following Table A. The example numbers given for the compounds of formula I relate to the following preparation examples.

Row | Compound | inhibition in vivo at 20 µmol/kg [%]
1 | Cc1ccnc(N2CCN(CCc3c(C)n4c5c(ccc(C(=O)C(C)C)c35)SCC4)CC2)c1 [Example 91] | 86
2 | Cc1ccnc(N2CCN(CCc3cn4c5c(cccc35)CCC4)CC2)c1 [Example 13, 5,6-Dihydro-1-{2-[4-(4-methylpyridin-2-yl)piperazin-1-yl]ethyl}-4H-pyrrolo[3,2,1-ij]quinoline] | 83
3 | Cc1ccnc(N2CCN(CCc3c(C)n4c5c(ccc(C(O)C(C)C)c35)SCC4)CC2)c1 (stereo not drawn) [Example 90] | 81
4 | CCCCC1CCc2cc(O)cc3c(CCN4CCN(c5cc(C)ccn5)CC4)c(C)n1c23 (stereo not drawn) [Example 76] | 100
5 | Cc1ccnc(N2CCN(CCc3c(C)n4c5c(cc(Cc6ccccc6)cc35)CCC4)CC2)c1 [Example 77] | 60
6 | Cc1ccnc(N2CCN(CCc3c(C)n4c5c(cccc35)CCC4c3ccc(O)cc3)CC2)c1 (stereo not drawn) [Example 61] | 100
7 | Cc1ccnc(N2CCN(CCc3c(C)n4c5c(cccc35)SCC4)CC2)c1 [Example 11, 5-Methyl-6-{2-[4-(4-methylpyridin-2-yl)piperazin-1-yl]ethyl}-2,3-dihydro-pyrrolo[1,2,3-de]-1,4-benzo-thiazine] | 100
8 | CCCCCCCC1CCc2cccc3c(CCN4CCN(c5cc(C)ccn5)CC4)c(C)n1c23 (stereo not drawn) [Example 4, 4-n-heptyl-5,6-dihydro-2-methyl-1-{2-[4-(4-methylpyridin-2-yl)piperazin-1-yl]ethyl}-4H-pyrrolo[3,2,1-ij]-quinoline] | 55
9 | Cc1ccnc(N2CCN(CCc3c(-c4ccc(OCCCCO)cc4)n4c5c(cccc35)CCC4)CC2)c1 [Example 12, 2-[4-(4-Hydroxybutyloxy)-phenyl]-1-{2-[4-(4-methylpyridin-2-yl)piperazin-1-yl]ethyl}-5,6-dihydro-4H-pyrrolo[3,2,1-ij]quinoline] | 25
10 | Cc1ccnc(N2CCN(CCc3c(C)n4c5c(cc(NC(=O)C(C)C)cc35)CCC4)CC2)c1 [Example 60] | 100
11 | Cc1c(CCN2CCN(c3ccccn3)CC2)c2cccc3c2n1CCC3 [Example 37] | 60
12 | Cc1ccnc(N2CCN(CCc3c(CO)n4c5c(cccc35)CCC4)CC2)c1 [Example 16, 5,6-dihydro-2-hydroxymethyl-1-{2-[4-(4-methylpyridin-2-yl)piperazin-1-yl]ethyl}-4H-pyrrolo[3,2,1-ij]quinoline] | 85
13 | COc1ccc(C2CCc3cc(OC)cc4c(CCN5CCN(c6cc(C)ccn6)CC5)c(C)n2c34)cc1 (stereo not drawn) [Example 65] | 100
14 | CC(C)=Cc1cc2c3c(c1)c(CCN1CCN(c4cc(C)ccn4)CC1)c(C)n3CCC2 [Example 26, 5,6-Dihydro-2-methyl-8-(2-methylprop-1-enyl)-1-{2-[4-(4-methylpyridin-2-yl)piperazin-1-yl]ethyl}-4H-pyrrolo[3,2,1-ij]quinoline] | 95
15 | Cc1ccnc(N2CCN(CCc3c(C)n4c5c(cc(Br)cc35)CCC4)CC2)c1 [Example 9, 8-Bromo-2-methyl-1-{2-[4-(4-methylpyridin-2-yl)piperazin-1-yl]ethyl}-5,6-dihydro-4H-pyrrolo[3,2,1-ij]quinoline] | 90
16 | Cc1ccnc(N2CCN(CCc3c(C)n4c5c(cc(C(O)C(C)C)cc35)CCC4)CC2)c1 (stereo not drawn) [Example 19, 5,6-Dihydro-8-(1-hydroxy-2-methylpropyl)-2-methyl-1-{2-[4-(4-methylpyridin-2-yl)piperazin-1-yl]ethyl}-4H-pyrrolo-[3,2,1-ij]quinoline] | 95
17 | Cc1ccnc(N2CCN(CCc3c(C)n4c5c(cc(CC(C)C)cc35)CCC4)CC2)c1 [Example 21, 5,6-Dihydro-2-methyl-8-(2-methylpropyl)-1-{2-[4-(4-methylpyridin-2-yl)piperazin-1-yl]ethyl}-4H-pyrrolo[3,2,1-ij]quinoline] | 95

Row | Compound | inhibition in vivo at 20 µmol/kg [%]
18 | CCCCC1CCc2cc(C(=O)C(C)C)cc3c(CCN4CCN(c5cc(C)ccn5)CC4)c(C)n1c23 (stereo not drawn) [Example 23, 4-n-Butyl-5,6-dihydro-8-(2-methyl-1-oxopropyl)-2-methyl-1-{2-[4-(4-methylpyridin-2-yl)piperazin-1-yl]ethyl}-4H-pyrrolo[3,2,1-ij]quinoline] | 100
19 | CCCCC1CCc2cccc3c(CCN4CCN(c5cc(C)ccn5)CC4)c(C)n1c23 (stereo not drawn) [Example 73, 4-n-butyl-5,6-dihydro-2-methyl-1-{2-[4-(4-methylpyridin-2-yl)piperazin-1-yl]ethyl}-4H-pyrrolo[3,2,1-ij]quinoline] | 100
20 | Cc1ccnc(N2CCN(CCc3c(C)n4c5c(cc(N)cc35)CCC4)CC2)c1 [Example 20, 8-Amino-5,6-dihydro-2-methyl-1-{2-[4-(4-methylpyridin-2-yl)piperazin-1-yl]ethyl}-4H-pyrrolo[3,2,1-ij]quinoline] | 100
21 | CC(=O)Oc1cc2c3c(c1)c(CCN1CCN(c4cc(C)ccn4)CC1)c(C)n3CCC2 [Example 24, 8-Acetoxy-5,6-dihydro-2-methyl-1-{2-[4-(4-methyl-pyridin-2-yl)piperazin-1-yl]ethyl}-4H-pyrrolo[3,2,1-ij]quinoline] | 55
22 | CCCCC1CCc2cc(OC)cc3c(CCN4CCN(c5cc(C)ccn5)CC4)c(C)n1c23 (stereo not drawn) [Example 63] | 100
23 | Cc1ccnc(N2CCN(CCc3c(-c4ccc(F)cc4)n4c5c(cccc35)CCC4)CC2)c1 [Example 47] | 50
24 | Cc1ccnc(N2CCN(CCc3c(C)n4c5c(cccc35)CC4C)CC2)c1 (stereo not drawn) [Example 33] | 100
25 | CCc1c(CCN2CCN(c3cc(C)ccn3)CC2)c2cccc3c2n1CCC3 [Example 15, 2-Ethyl-5,6-dihydro-1-{2-[4-(4-methylpyridin-2-yl)piperazin-1-yl]ethyl}-4H-pyrrolo[3,2,1-ij]quinoline] | 85
26 | CC(=O)c1cc2c3c(c1)c(CCN1CCN(c4cc(C)ccn4)CC1)c(C)n3CCC2 [Example 67] | 100
27 | COc1ccc(C2CCc3cccc4c(CCN5CCN(c6cc(C)ccn6)CC5)c(C)n2c34)cc1 (stereo not drawn) [Example 59] | 95
28 | Cc1ccnc(N2CCN(CCc3c(C)n4c5c(cc(N(C)C)cc35)CCC4)CC2)c1 [Example 81] | 86
29 | C=CCCC1CCc2cccc3c(CCN4CCN(c5cc(C)ccn5)CC4)c(C)n1c23 (stereo not drawn) [Example 62] | 100
30 | Cc1ccnc(N2CCN(CCc3c(C)n4c5c(cc(NC(=O)c6ccccc6)cc35)CCC4)CC2)c1 [Example 25, 8-Benzoylamino-5,6-dihydro-2-methyl-1-{2-[4-(4-methylpyridin-2-yl)piperazin-1-yl]-ethyl}-4H-pyrrolo[3,2,1-ij]quinoline] | 100
31 | Cc1ccnc(N2CCN(CCc3c(C)n4c5c(cc(C(=O)C(C)C)cc35)CCC4)CC2)c1 [Example 27, 5,6-dihydro-2-methyl-8-(2-methyl-1-oxopropyl)-1-{2-[4-(4-methylpyridin-2-yl)piperazin-1-yl]ethyl}-4H-pyrrolo-[3,2,1-ij]quinoline] | 100
32 | Cc1ccnc(N2CCN(CCc3c(C)n4c5c(cc(C(=O)c6ccccc6)cc35)CCC4)CC2)c1 [Example 66] | 80
33 | COc1ccc(-c2c(CCN3CCN(c4cc(C)ccn4)CC3)c3cccc4c3n2CCC4)cc1 [Example 7, 2-(4-methoxy-phenyl)-1-{2-[4-(4-methylpyridin-2-yl)piperazin-1-yl]ethyl}-5,6-dihydro-4H-pyrrolo[3,2,1-ij]quinoline] | 75
34 | Cc1ccnc(N2CCN(CCc3c(C)n4c5c(cc([N+](=O)[O-])cc35)CCC4)CC2)c1 [Example 10, 2-Methyl-8-nitro-1-{2-[4-(4-methylpyridin-2-yl)-piperazin-1-yl]ethyl}-5,6-dihydro-4H-pyrrolo[3,2,1-ij]quinoline] | 83

system: not listed separately; test: Determination of the minimum toxic dose; set-up: species or system male mice; settings: mouse, in vivo, po, 300 mg/kg, 1440 min
Method: 2. Determination of the minimum toxic dose.
Maximum doses of 300 mg/kg of the test substance were administered orally to male mice weighing 20-25 g. The animals were observed carefully for 3 hours for toxicity symptoms. In addition, all symptoms and deaths over a period of 24 hours after administration were recorded. Associated symptoms were also observed and recorded. If death or severe toxic symptoms were observed, further mice were administered increasingly lower doses. The lowest dose which caused death or severe toxic symptoms is given as the minimum toxic dose in the following Table B.

Row | Compound | Minimum toxic dose (lowest dose which caused death or severe toxic symptoms) [mg/kg]
35 | Cc1ccnc(N2CCN(CCc3cn4c5c(cccc35)CCC4)CC2)c1 [Example 13, 5,6-Dihydro-1-{2-[4-(4-methylpyridin-2-yl)piperazin-1-yl]ethyl}-4H-pyrrolo[3,2,1-ij]quinoline] | 100
36 | Cc1ccnc(N2CCN(CCc3c(C)n4c5c(cccc35)SCC4)CC2)c1 [Example 11, 5-Methyl-6-{2-[4-(4-methylpyridin-2-yl)piperazin-1-yl]ethyl}-2,3-dihydro-pyrrolo[1,2,3-de]-1,4-benzo-thiazine] | 100
